What is called Ki is the equilibrium dissociation constant of an inhibitor or competing ligand from its target.

Two molecules from PMC12802350, “Opposite effects of spermidine and GC7 in cell culture are dictated by distinct molecular targets” (Biochemical Journal, 2025) can be followed below.

Assay [1] has as its target T1, bovine serum amine oxidase (BSAO) (Bos taurus, UniProt Q29437).
T1 sequence (Q29437 17-762): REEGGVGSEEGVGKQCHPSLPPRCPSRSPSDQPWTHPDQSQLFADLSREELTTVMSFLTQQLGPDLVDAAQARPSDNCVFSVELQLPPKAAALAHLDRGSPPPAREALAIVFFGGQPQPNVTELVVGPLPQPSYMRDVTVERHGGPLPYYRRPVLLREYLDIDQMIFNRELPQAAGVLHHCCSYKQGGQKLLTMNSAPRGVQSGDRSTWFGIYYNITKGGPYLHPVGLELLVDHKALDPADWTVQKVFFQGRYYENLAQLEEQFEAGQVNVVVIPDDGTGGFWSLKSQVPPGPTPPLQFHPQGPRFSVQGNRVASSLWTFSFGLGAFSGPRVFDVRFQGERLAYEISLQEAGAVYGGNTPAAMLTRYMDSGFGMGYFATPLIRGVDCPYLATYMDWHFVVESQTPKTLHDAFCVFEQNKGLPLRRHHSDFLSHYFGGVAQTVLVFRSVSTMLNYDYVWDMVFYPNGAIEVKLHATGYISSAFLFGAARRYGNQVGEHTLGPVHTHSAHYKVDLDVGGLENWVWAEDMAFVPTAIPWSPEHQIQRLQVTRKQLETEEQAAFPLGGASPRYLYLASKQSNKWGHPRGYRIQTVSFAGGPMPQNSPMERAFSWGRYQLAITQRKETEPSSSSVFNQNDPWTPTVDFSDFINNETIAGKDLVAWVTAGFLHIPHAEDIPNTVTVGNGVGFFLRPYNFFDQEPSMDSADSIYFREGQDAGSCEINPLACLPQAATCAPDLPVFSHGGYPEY
The experiment in a line: DCHBS/AAP peroxide-coupled kinetic assay with spermidine as substrate, Morrison tight-binding fit. Format: biochemical. The arrangement: BSAO purified from bovine blood.

For assay [2], the target named is T1, bovine serum amine oxidase (BSAO). The experiment in a line: spectrophotometric benzaldehyde formation at […] nm. The arrangement: BSAO purified from bovine blood; also decomplemented FBS. Format: biochemical.

Consider `N=C(N)NCCCCCCCN` [GC7], for which, in assay [1], the affinity, expressed as Ki, was 0.308 µM.

As for `NCc1ccccc1` [benzylamine], the “spectrophotometric benzaldehyde formation at 250 nm” value in assay [2] was “BSAO and decomplemented FBS activities were determined spectrophotometrically as the amount of benzaldehyde formed per min (μmol/min) from benzylamine”.
